Data on one compound can be found in patent publication US8741659B2, “Composition for measuring the binding affinity between nucleic acid and test substance, and use thereof” (Osaka University, priority 2007, dated 2014).

One assay deals with RRE. Kind of assay: Displacement assay using X2S. Format: binding, HIV-1. The source says: In this Example, X2S was used to measure a binding affinity between a test substance and RRE. As the test substance, Rev protein (supplied by Professor Takashi MORII, Graduates School of Energy Science, Kyoto University), aminoglycoside antibiotic neomycin (available from Sigma-Aldrich, product number; N-1876) (hereinafter, simply referred to as “neomycin”), and thrombin (available from Bachem, product number; AG H-8550) were used. […] The structure of Rev protein is shown in FIG. 9, and the amino acid sequence of Rev protein is shown in SEQ ID NO: 5. FIG. 9 is a view schematically illustrating the structure of Rev protein. Further, the structure of thrombin is shown in FIG. 10, and the amino acid sequence of thrombin is shown in SEQ ID NO: 6. FIG. 10 is a view schematically illustrating the structure of thrombin.
Firstly, in the same manner as in Example 3, X2S and RRE were dissolved in a cacodylate buffer solution (sodium cacodylate: 10 mM, pH 7.0; NaCl: 100 mM) each at 2 μM. Thus, an X2S-RRE solution was prepared.
To the X2S-RRE solution, Rev protein was added in steps at 0 μM, 0.4 μM, 0.8 μM, 1.2 μM, 1.6 μM, 2.0 μM, 2.4 μM, 2.8 μM, 3.2 μM, 3.6 μM, and 4.0 μM. Further, a fluorescence intensity was measured at each concentration. Similarly, to the X2S-RRE solution, neomycin was added in steps at 0 μM, 0.4 μM, 0.8 μM, 1.2 μM, 1.6 μM, 2.0 μM, 2.4 μM, 2.8 μM, 3.2 μM, 3.6 μM, and 4.0 μM. Further, a fluorescence intensity was measured at each concentration. Similarly, to the X2S-RRE solution, thrombin was added in steps at 0 μM, 0.4 μM, 0.8 μM, 1.2 μM, 1.6 μM, 2.0 μM, 2.4 μM, 2.8 μM, 3.2 μM, 3.6 μM, and 4.0 μM. Further, a fluorescence intensity was measured at each concentration. The fluorescence intensities were measured in the same manner as that described in Example 2.
FIG. 11 is a view illustrating a result of the measurement of a binding affinity between Rev protein and RRE; FIG. 12 is a view illustrating a result of the measurement of a binding affinity between neomycin and RRE; and FIG. 13 is a view illustrating a result of the measurement of a binding affinity between thrombin and RRE. In each of FIGS. 11 to 13, the horizontal axis represents the fluorescence wavelength, whereas the vertical axis represents the fluorescence intensity. […] Furthermore, along the direction of the arrow extending from the curved line at the bottom, the curved lines are arranged in order of increasing amount of the test substance which was added.
FIG. 14 is a view plotting the fluorescence intensities at a fluorescence wavelength of 453 nm shown in the results illustrated in FIGS. 11 to 13. The horizontal axis represents the concentration of each test substance, whereas the vertical axis represents the fluorescence intensity. In FIG. 14, the circle marks represent the result obtained in the case involving use of Rev protein, the square marks represent the result obtained in the case involving use of neomycin, and the triangle marks represent the result obtained in the case involving use of thrombin.
A displacement assay using X2S was performed in the same manner as that described in Example 5, except that, in this Example, fluorescence was measured also when Rev protein was added at concentrations of 4.4 μM and 4.8 μM.
FIG. 16 is a view illustrating the result of the displacement assay using X2S. The horizontal axis represents the fluorescence wavelength, whereas the vertical axis represents the fluorescence intensity.

Assay [1] deals with RNAs of FIG. 2 (SEQ ID NOs: 1 through 3), with or without bulge structure. The assay is described as follows: Evaluation of binding between xanthone fluorescent molecule and RNA (fluorescence before and after mixing RNA). The following applies: 10 μM compound, 30 μM RNA (A, U, C, G bulge or no bulge), cacodylate buffer pH 7.0, NaCl 100 mM. The procedure:
Next, binding between X2S and RNAs was evaluated. The RNAs used in the present example had the structure illustrated in FIG. 2. FIG. 2 is a diagram schematically illustrating the structure of the RNAs used in the present example. The RNAs used in the present example had sequences shown in SEQ ID NOs: 1 through 3.
The symbol N in FIG. 2 represents either a base out of A, U, C, and G, or no base. Thus, in a case where a particular RNA as in FIG. 2 has N representing a base out of A, U, C, and G, the RNA is an RNA formed by hybridization of an RNA having the base sequence shown in SEQ ID NO: 1 with a single strand RNA having the base sequence shown in SEQ ID NO: 2. On the other hand, in a case where a particular RNA as in FIG. 2 has N representing no base, the RNA is an RNA formed by hybridization of an RNA having the base sequence shown in SEQ ID NO: 1 with an RNA having the base sequence shown in SEQ ID NO: 3.
This also applies to other bases. The RNAs used in the present example were purchased from Hokkaido System Science Co., Ltd.
Firstly, X2S was mixed in a cacodylate buffer solution (sodium cacodylate: 10 mM, pH 7.0; NaCl: 100 mM) at 10 μM, so that an X2S solution was obtained. The X2S solution was irradiated with light having an absorption maximum of 371±3 nm, and a fluorescence intensity was then measured. The fluorescence intensity was measured with use of a device (product number: RF-5300PC) available from Shimadzu Corporation. For each type of the RNAs, the fluorescence intensity was measured after the RNA was mixed in the X2S solution at 30 μM.
FIGS. 3 and 4 compare the fluorescence intensities measured before and after the RNA was mixed. […] The horizontal axis represents the fluorescence wavelength, whereas the vertical axis represents the fluorescence intensity. FIG. 4 is an enlarged graph corresponding to the fluorescence intensity of 5 A.U. in FIG. 3 and its vicinity.
Binding between X1S and RNAs was evaluated by a method identical to the method described in Example 2, except that X1S was used instead of X2S. […]

Each structure is given as a SMILES string.

Turning to `NCCOc1ccc2oc3ccc(OCCN)cc3c(=O)c2c1` [X2S, 2,7-bis(2-aminoethoxy)xanthen-9-one], in the assay with RRE (FIG. 11 compared with FIG. 15), the “change in the fluorescence intensity, X2S compared with ethidium bromide” value was “greater in the case involving use of X2S than in the case involving use of ethidium bromide”. Moreover, in the assay on RRE (Rev protein up to 4.8 μM), the “concentration at which a change in fluorescence intensity was still clearly observed” value was determined as 3.2 µM and the “ultimate increase of fluorescence intensity” value is “approximately 80%”. Further, the “binding to RNAs” value in assay [1] was “capable of binding to RNAs having various structures”.
